# Results as given in patent publication US20230053649A1 (Cedilla Therapeutics, Inc., priority 2021, published 2023).
# Experiments:
# [1] = tested on: mesothelioma cell line NCI-H226; test: 72H TEAD Proliferation Assay (Cell Titer-Glo 2.0); assay type: cell-based; conditions: Homo sapiens, CTG 2.0, cell line not given in Table 1 (NCI-H226 TEAD-responsive, NCI-H28 non-responsive counter-screen)
# Experimental: 72H TEAD Proliferation Assay.
# The effect of TEAD inhibition on cell proliferation was assayed using Cell Titer Glo (CTG) 2.0 to measure response in mesothelioma cell lines NCI-H226 (ATCC, #CRL-5826) and NCI-H28 (ATCC, #CRL-5820).
# The 72H TEAD Proliferation assay utilizes Cell Titer-Glo 2.0 (Promega, #G9243) to measure the proliferation of cells in the presence or absence of compound. Cell Titer-Glo 2.0 determines the amount of viable cells by quantifying ATP (an indication of metabolically active cells). It utilizes the conversion of Luciferin to Oxyluciferin and a luminescent signal with the use of ATP to report the quantity of viable cells in culture. Within cells that are continually growing, ATP is being synthesized to meet their metabolic demands, meanwhile the opposite is true for cells that are dying or slowing down their proliferation and either no longer using ATP or are using less, respectively. The NF2-deficient NCI-H226 has been genetically validated as a cell line that is sensitive to TEAD inhibition. The NF2-wild type NCI-H28 has been genetically validated as a cell line that is not sensitive to TEAD inhibition and grows independently of TEAD activity.
# Compounds were screened against the responsive NCI-H226 cell line to assess the compounds' ability to inhibit TEAD and cell growth. Compounds were also screened against the non-responsive NCI-H28 cell line to ascertain whether the inhibition of cell growth was due to inhibition of the target TEAD or whether the inhibition was due to off-target cytotoxicity.
# Both NCI-H226 and NCI-H28 cells were grown at 37° C. with 5% CO2 using Growth Medium 1.
# Anti-proliferative effect of compounds that inhibits TEAD activity measured by CTG
# 1) Assay ready plates (ARPs) were prepared by Echo acoustic liquid handler. For each compound, duplicate of 10-point half-log dilution series were dispensed in a 384-well microplate (Corning 3571).
# 3) Before use, ARPs were allowed to warm up to room temperature for 30 min.
# 4) ARPs were spun for 5 minutes at 1500RPM before removing the plate seals.
# 5) NCI-H226 or NCI-H28 cells were harvested from culture in Assay Medium 1 and the multidrop Combi reagent dispenser was used to seed cells at 500 cells per 50ul in each well of the ARPs and one Corning 3571 plate without compounds for Time 0 (TO) readout.
# 6) The TO plate was incubated for 2 hours at 37° C. with 5% CO2 to allow cells to settle, then the CTG Assay was performed.
# 7) All ARPs were incubated for 72 hours at 37° C. with 5% CO2, then the CTG Assay was performed for Time 72H (T72) readout.
# 8) CTG Assay: Bravo liquid handler (Agilent) was used to add 25ul of CTG 2.0 to all columns of the plate except for Column 24, which was used to subtract out the background. After CTG addition, plates were placed on shaker at 800RPM for 15 minutes at room temperature and kept in the dark. Luminescence was measured using EnVision multilabel plate reader with ultra-sensitive detection module.
# 9) Data Analysis: First background luminescence (no CTG wells) was subtracted from luminescence reading of all wells, then TO luminescence was subtracted from T72 luminescence. To compare anti-proliferative effect of compounds, GI50 was obtained by fitting dose response curves with nonlinear regression curve fit.
# [2] = target: T1, TEAD1 protein (YAP Binding Domain) (Homo sapiens, UniProt P28347); test: TEAD1 lipid pocket compound displacement assay (CDA, TR-FRET); conditions: read-out: CDA IC50, displacement of Cy5-probe from His-TEAD1, 60 minutes at room temperature
# Experimental: Compound Displacement Assay.
# (§1) A TEAD1 lipid pocket displacement assay was carried out according to the following protocol. Purified His-tagged TEAD1 protein (YAP Binding Domain) was pre-mixed with a Cy5-probe (Cy5-conjugated to a small molecule that binds in the TEAD1 lipid pocket) and Terbium-labeled anti-His antibody (Cisbio Cat 61HI2TLB). The binding of the Cy5-probe to anti-His-Tb/His-tag TEAD1 complex yielded a TR-FRET signal. […] After 60 minutes incubation at room temperature of compounds with the His-TEAD1/anti-His-Tb/Cy5-probe complex, the plate was read on a plate reader (BMG ClarioStar Cat 430-1300) using TR-FRET mode with wavelengths of 665 nm/620 nm. The potency of compounds as TEAD1 lipid pocket binders was determined by IC50 value generated using a non-linear 4 parameter curve fit.
# [3] = tested on: EGFR-mutant NSCLC PC-9 cells; test: Apoptosis (caspase-3/7, IncuCyte) in combination with EGFR inhibitor Osimertinib; assay type: cell-based
# Experimental: Apoptosis was detected by CellEvent Caspase 3/7 Green ReadyProbes Reagent (ThermoFisher), a fluorogenic indicator of activated caspase-3/7. Cell death (apoptsis) and cell growth (phase confluence) over time were captured by IncuCyte live cell imaging system (Essen Bioscience) and quantified by IncuCyte S3 software (Essen Bioscience). Apoptotic Index was calculated by dividing apoptosis signal with phase confluence.
# [4] = target: T1, TEAD1 protein (YAP Binding Domain); test: biochemical
# Experimental: Compound Displacement Assay.
# as §1
# T1 sequence (P28347 167-426 limits assumed): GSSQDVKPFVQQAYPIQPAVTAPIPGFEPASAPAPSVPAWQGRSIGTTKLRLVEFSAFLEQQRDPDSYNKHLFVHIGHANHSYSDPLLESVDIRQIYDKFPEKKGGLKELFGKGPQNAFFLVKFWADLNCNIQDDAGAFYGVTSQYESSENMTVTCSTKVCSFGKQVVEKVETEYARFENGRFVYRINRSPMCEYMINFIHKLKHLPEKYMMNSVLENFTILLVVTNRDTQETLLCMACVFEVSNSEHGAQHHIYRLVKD
SMILES,GI50 [1],IC50 [4],further results
COc1ccc2c(N3CCC(C(F)(F)F)CC3)nc(C(N)=O)cc2c1 [Compound 66],1 to 5 µM,–,IC50 [2]: < 0.15 µM
"C=CC(=O)Nc1cc(Nc2nccc(-c3cn(C)c4ccccc34)n2)c(OC)cc1N(C)CCN(C)C [Osimertinib, reference compound]",–,–,Fold Change over DMSO at 48 hrs (apoptotic index) ([3]; Osimertinib (100 nM) alone): 2.6
"C#Cc1ccc(-c2cccc3cc(C(=O)N[C@@H](C)c4ccccn4)cnc23)cc1 [I′-29, (S)-8-(4-ethynylphenyl)-N-(1-(pyridin-2-yl)ethyl)quinoline-3-carboxamide]",1 to 5 µM,< 0.15 µM,–
"COc1cc(N2CCC(C(C)(C)C)CC2)c2ncc(C(=O)N[C@H](C)CO)cc2c1 [Compound I-2, (R)-8-(4-(tert-butyl)piperidin-1-yl)-N-(1-hydroxypropan-2-yl)-6-methoxyquinoline-3-carboxamide]",≤ 0.5 µM,0.3 to 0.5 µM,–
"C[C@H](NC(=O)c1ccc2c(N3CCC(C(F)(F)F)CC3)nccc2c1)c1ccccn1 [Compound I-51, (S)-N-(1-(Pyridin-2-yl)ethyl)-1-(4-(trifluoromethyl)piperidin-1-yl)isoquinoline-6-carboxamide]",≤ 0.5 µM,< 0.15 µM,–
"COc1cc(-c2ccc(OC(F)(F)F)cc2)c2ncc(C(=O)N[C@H](C)CO)cc2c1 [Compound I-15, (R)-N-(1-hydroxypropan-2-yl)-6-methoxy-8-(4-(trifluoromethoxy)phenyl)quinoline-3-carboxamide]",≤ 0.5 µM,< 0.15 µM,–
"COC[C@H](C)NC(=O)c1ccc2c(N3CCC(C(F)(F)F)CC3)nc(OC)cc2c1 [Compound I-50, (S)-3-Methoxy-N-(1-methoxypropan-2-yl)-1-(4-(trifluoromethyl)piperidin-1-yl)isoquinoline-6-carboxamide]",0.5 to 1 µM,< 0.15 µM,–
"COc1cc(N2CCC(C(F)(F)F)CC2)c2ncc(C(=O)N[C@H](C)CO)cc2c1 [Compound I-1, (R)-N-(1-hydroxypropan-2-yl)-6-methoxy-8-(4-(trifluoromethyl)piperidin-1-yl)quinoline-3-carboxamide]",0.5 to 1 µM,0.15 to 0.3 µM,"Fold Change over DMSO at 48 hrs (apoptotic index) ([3]; I-1 (10 μM) alone): 1.0; Fold Change over DMSO at 48 hrs (apoptotic index) ([3]; Osimertinib (100 nM) + I-1 (0.37 μM), 24 h Osimertinib pre-treatment): 4.1; Fold Change over DMSO at 48 hrs (apoptotic index) ([3]; Osimertinib (100 nM) + I-1 (1.1 μM), 24 h Osimertinib pre-treatment): 5.4; Fold Change over DMSO at 48 hrs (apoptotic index) ([3]; Osimertinib (100 nM) + I-1 (10 μM), 24 h Osimertinib pre-treatment): 7.0"
"COc1cc(N2CCC3(CCCC3)CC2)c2ncc(C(=O)N[C@H](C)CO)cc2c1 [Compound I-4, (R)-N-(1-hydroxypropan-2-yl)-6-methoxy-8-(8-azaspiro[4.5]decan-8-yl)quinoline-3-carboxamide]",0.5 to 1 µM,0.15 to 0.3 µM,–
"CC[C@@H](CO)NC(=O)c1cnc2c(N3CCC(C(F)(F)F)CC3)cc(OC)cc2c1 [Compound I-14, (S)-N-(1-hydroxybutan-2-yl)-6-methoxy-8-(4-(trifluoromethyl)piperidin-1-yl)quinoline-3-carboxamide]",1 to 5 µM,0.15 to 0.3 µM,–
"COc1cc2cc(C(=O)N[C@H](C)CO)ccc2c(N2CCC(C(F)(F)F)CC2)n1 [Compound I-49, (R)-N-(1-hydroxypropan-2-yl)-3-methoxy-1-(4-(trifluoromethyl)piperidin-1-yl)isoquinoline-6-carboxamide]",≤ 0.5 µM,< 0.15 µM,–
"C[C@H](CO)NC(=O)c1ccc2c(N3CCC(C(F)(F)F)CC3)cccc2c1 [Compound I-59, (R)-N-(1-hydroxypropan-2-yl)-5-(4-(trifluoromethyl)piperidin-1-yl)-2-naphthamide]",≤ 0.5 µM,0.15 to 0.3 µM,–
"COc1cc(N2CCC(C(F)(F)F)CC2)c2ncc(C(=O)N3CC(O)C3)cc2c1 [Compound I-11, (3-hydroxyazetidin-1-yl)(6-methoxy-8-(4-(trifluoromethyl)piperidin-1-yl)quinolin-3-yl)methanone]",1 to 5 µM,> 0.5 µM,–
"COc1cc(N2CCC(C(F)(F)F)CC2)c2ncc(C(=O)N[C@H](C)C(=O)O)cc2c1 [Compound I-42, (6-Methoxy-8-(4-(trifluoromethyl)piperidin-1-yl)quinoline-3-carbonyl)-D-alanine]",> 5 µM,0.15 to 0.3 µM,–
"COC[C@H](C)NC(=O)c1cnc2c(N3CCC(C(F)(F)F)CC3)cc(OC)cc2c1 [Compound I-9, (S)-6-methoxy-N-(1-methoxypropan-2-yl)-8-(4-(trifluoromethyl)piperidin-1-yl)quinoline-3-carboxamide]",≤ 0.5 µM,0.15 to 0.3 µM,–
"COc1cc(N2CCC(C(F)(F)F)CC2)c2ncc(C(=O)N[C@@H](CO)C(C)(C)C)cc2c1 [Compound I-40, (R)-N-(1-hydroxy-3,3-dimethylbutan-2-yl)-6-methoxy-8-(4-(trifluoromethyl)piperidin-1-yl)quinoline-3-carboxamide]",0.5 to 1 µM,0.15 to 0.3 µM,–
